Active and inactive are the calls of the source.
Tested on: not listed separately
Assay: Luminescence Cell-Based Dose Retest to Confirm Inhibitors of Cancer Stem Cells. [Related pubchem assays (depositor defined):AID2717, AID2721]
Type: functional
Conditions: Homo sapiens

Compound | AC50
O=C1C=C(c2ccc(Cl)c(C(F)(F)F)c2)C[C@@H](c2ccc(Cl)cc2)C1 | 3.41 µM (active)
CCOC(=O)c1cc(-c2cccs2)nc2c1c(C)nn2-c1ccccn1 | 8.5 µM (active)

Tested on: not listed separately
Assay: cells
Type: functional
Conditions: not given

Compound | IC50
COC(=O)CN(C#N)c1nc(N(C)C)nc(N(C)C)n1 | 9.57 µM (active)
CCn1nnc(NC(=O)c2sc3ccccc3c2Cl)n1 | 19.2 µM (active)
CCOC(=O)c1cc(-c2csc(COc3ccc(Cl)cc3)n2)on1 | < 0.1 µM (active)
CCOc1ccc(-c2nnc(NC(=O)CCCOc3cccc(C)c3)o2)cc1 | 5.86 µM (active)
Cc1ccc(N2NC(=O)/C(=C/C=C/c3ccco3)C2=O)cc1C | 13 µM (active)
COC(=O)COc1ccc(-c2nn(C)c(=O)c3ccccc23)cc1 | 2.56 µM (active)
O=C(COc1ccc(-c2ccccc2)cc1)Nc1cccnc1 | 4.39 µM (active)
COc1cccc2cc(C(=O)NCc3ccc(F)cc3)c(=N)oc12 | > 50 µM (active)

Molecular target: T1, Heat shock factor protein 1 (Mus musculus, UniProt P38532)
T1 sequence (P38532 whole entry): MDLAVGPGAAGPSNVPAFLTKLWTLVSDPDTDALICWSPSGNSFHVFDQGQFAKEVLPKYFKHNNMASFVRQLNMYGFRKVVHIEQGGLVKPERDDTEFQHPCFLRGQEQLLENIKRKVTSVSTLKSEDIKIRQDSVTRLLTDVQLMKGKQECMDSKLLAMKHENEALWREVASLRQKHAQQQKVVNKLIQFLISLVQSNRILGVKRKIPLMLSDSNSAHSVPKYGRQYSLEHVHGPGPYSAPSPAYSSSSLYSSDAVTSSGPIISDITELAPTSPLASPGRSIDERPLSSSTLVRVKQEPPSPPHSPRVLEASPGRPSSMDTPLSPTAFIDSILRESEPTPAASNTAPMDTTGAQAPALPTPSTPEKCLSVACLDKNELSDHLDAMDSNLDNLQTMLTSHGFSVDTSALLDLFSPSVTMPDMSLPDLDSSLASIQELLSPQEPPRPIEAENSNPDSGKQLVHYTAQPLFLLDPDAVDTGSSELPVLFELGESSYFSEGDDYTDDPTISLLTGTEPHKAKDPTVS
Assay: inhibition of MG132-induced HSE-luciferase signal, confirmation, cell-based, NIH3T3, luminescence, dose retest (AID 2382);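 note: NIH3T3 fibroblasts with HSF1-driven luciferase reporter stressed by proteasome inhibitor MG132; luminescence from HSF1-driven luciferase expression after 8 hours of MG132 stress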
Type: functional
Conditions: not given

Compound | EC50
CCC(Sc1nc(C)cc(C)n1)C(=O)NC1=NN=C(c2ccc(C)cc2)CS1 (stereo unspecified) | 12.2 µM (active)

Tested on: not listed separately
Assay: inhibitors of intracellular T. cruzi replication, confirmation, NIH3T3 host cells, beta-gal luminescence (AID 2044);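 note: intracellular parasites grown in NIH/3T3 mouse fibroblasts as host cells; luminescent beta-galactosidase reporter signal from transgenic T. cruzi replicating inside host cells; inhibitors lower the luminescence signal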
Type: functional, cell-based
Conditions: not given

Compound | EC50
COc1ccc(OC)c(Nc2nc(N(C)c3ccccc3)nc(N)c2[N+](=O)[O-])c1 | 0.888 µM (active)

Molecular target: Luciferin 4-monooxygenase (Photinus pyralis, UniProt P08659)
Sequence (P08659 whole entry): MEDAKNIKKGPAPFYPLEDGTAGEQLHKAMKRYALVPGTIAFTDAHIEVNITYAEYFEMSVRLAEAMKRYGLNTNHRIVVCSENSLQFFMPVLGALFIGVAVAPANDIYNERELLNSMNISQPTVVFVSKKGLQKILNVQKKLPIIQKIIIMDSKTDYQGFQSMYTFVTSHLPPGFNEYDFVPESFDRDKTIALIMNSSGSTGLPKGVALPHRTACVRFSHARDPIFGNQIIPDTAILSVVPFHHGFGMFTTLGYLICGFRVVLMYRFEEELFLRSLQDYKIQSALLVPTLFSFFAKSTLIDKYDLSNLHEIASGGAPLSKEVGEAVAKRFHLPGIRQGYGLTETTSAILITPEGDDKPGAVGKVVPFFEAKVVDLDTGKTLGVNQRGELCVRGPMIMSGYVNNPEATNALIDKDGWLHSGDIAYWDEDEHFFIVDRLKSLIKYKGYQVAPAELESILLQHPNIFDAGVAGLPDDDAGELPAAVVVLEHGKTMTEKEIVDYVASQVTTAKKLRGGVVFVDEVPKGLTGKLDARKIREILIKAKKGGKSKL
Assay: firefly luciferase enzyme inhibitors, dose response, biochemical, luminescence (AID 1891)
Conditions: not given

Compound | EC50
COc1cc(/C=N/NC(=O)c2nonc2C)ccc1O | 23.5 µM (active)

Molecular target: FAD-linked sulfhydryl oxidase ALR (Homo sapiens, UniProt P55789)
Sequence (P55789 whole entry): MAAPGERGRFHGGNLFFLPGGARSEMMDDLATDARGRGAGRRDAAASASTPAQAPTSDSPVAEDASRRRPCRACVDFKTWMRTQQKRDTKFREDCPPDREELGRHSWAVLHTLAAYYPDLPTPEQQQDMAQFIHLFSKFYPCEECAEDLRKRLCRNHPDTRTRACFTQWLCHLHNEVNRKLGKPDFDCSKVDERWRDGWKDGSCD
Assay: inhibitors of human ALR sulfhydryl oxidase, dose response, biochemical, H2O2 detection, luminescence, cherry-pick (AID 493248)
Conditions: not given

Compound | AC50
CN(C)S(=O)(=O)c1ccc(-c2cn3ccccc3n2)cc1 | 2.05 µM (active)
CN(C)c1ccc(CNc2ccc3c(c2)ncn3C)cc1 | 1.78 µM (active)
COC(=O)c1c(NC(=O)C2CC=CCC2C(=O)O)sc(C(N)=O)c1C (stereo unspecified) | 3.13 µM (active)
Cc1ccc(O)c(CCc2ccc(O)cc2)n1 | 2.64 µM (active)
NNC(=O)c1sc(-c2ccc(Cl)cc2)cc1N | 2.39 µM (active)
O=C(CN1CCN(c2ccccc2)CC1)Nc1ccccc1Cl | 6.68 µM (active)
COc1cc(NS(=O)(=O)c2ccc(NC(=O)NC3CCCCC3)cc2)nc(OC)n1 | 3.49 µM (active)
CC(=O)c1cccc(Oc2cc(NN3CCCCC3)c([N+](=O)[O-])cc2[N+](=O)[O-])c1 | 0.471 µM (active)
Cc1csc(/C(=N/OC(=O)c2ccco2)C(N)=O)n1 | 0.252 µM (active)

Tested on: INS1
Assay: beta cell apoptosis inhibitors, cytokine rescue, dose response, luminescence, retest (AID 449756);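 note: cell death triggered by IL-1 beta plus TNF-alpha plus IFN-gamma mixture; protective hits raise ATP signal compared with cytokine alone wells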
Type: functional, cell-based
Conditions: Rattus norvegicus

Compound | AC50
CCC(Sc1nc(C)cc(C)n1)C(=O)NC1=NN=C(c2ccc(C)cc2)CS1 (stereo unspecified) | 4.8 µM (active)

Tested on: not listed separately
Assay: HEp-2 cell cytotoxicity, dose response, cytotoxicity control for RSV inhibitor project, HTS (AID 2410)
Type: functional
Conditions: human respiratory syncytial virus

Compound | CC50
O=C1C=C(c2ccc(Cl)c(C(F)(F)F)c2)C[C@@H](c2ccc(Cl)cc2)C1 | 12.1 µM (active)
COc1ccc(OC)c(Nc2nc(N(C)c3ccccc3)nc(N)c2[N+](=O)[O-])c1 | > 50 µM (active)
CCn1c2ccccc2c2nnc(SCc3ccccc3)nc21 | 34.6 µM (active)
O=C(O)c1ccc(NC(=O)c2cn(-c3ccccc3)nc2-c2ccc(Br)cc2)cc1 | 21 µM (active)
CCN(CC)S(=O)(=O)c1ccc(NCC2COc3ccccc3O2)c([N+](=O)[O-])c1 (stereo unspecified) | 13 µM (active)
CCOC(=O)Cc1csc(NC(=O)/C=C/c2ccccc2Cl)n1 | 18.9 µM (active)
Cc1cccc(NC(=O)CC2Nc3cccc4cccc(c34)NC2=O)c1 (stereo unspecified) | > 50 µM (active)
Oc1c2c(nc3cc(-c4cccc(Cl)c4)nn13)CCCC2 | 39.3 µM (active)
CCOC(=O)c1cc(-c2cccs2)nc2c1c(C)nn2-c1ccccn1 | 16.4 µM (active)

Molecular target: T2, Streptokinase A (Streptococcus pyogenes serotype M1, UniProt P10520)
T2 sequence (P10520 whole entry): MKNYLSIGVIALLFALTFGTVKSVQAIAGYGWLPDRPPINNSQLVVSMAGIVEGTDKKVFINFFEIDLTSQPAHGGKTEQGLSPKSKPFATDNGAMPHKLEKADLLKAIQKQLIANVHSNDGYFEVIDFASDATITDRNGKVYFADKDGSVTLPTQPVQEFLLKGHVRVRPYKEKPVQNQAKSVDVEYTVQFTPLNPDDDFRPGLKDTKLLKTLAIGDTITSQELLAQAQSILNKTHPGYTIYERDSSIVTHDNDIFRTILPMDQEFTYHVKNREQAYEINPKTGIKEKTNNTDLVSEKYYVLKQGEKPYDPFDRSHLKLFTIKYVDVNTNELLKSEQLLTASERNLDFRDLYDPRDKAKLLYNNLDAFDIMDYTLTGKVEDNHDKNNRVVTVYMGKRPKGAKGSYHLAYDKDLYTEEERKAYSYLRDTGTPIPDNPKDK
Assay: S. pyogenes streptokinase expression inhibitors, potency, dose response, plasminogen activation absorbance, OD405 (AID 1914);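 note: secreted streptokinase activity via plasminogen activation per viability signal from cell pellet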
Type: functional, Streptococcus pyogenes M1 GAS
Conditions: not given

Compound | EC50
CCOC(=O)c1cc(-c2cccs2)nc2c1c(C)nn2-c1ccccn1 | 122 µM (active)

Tested on: not listed separately
Assay: Luminescence Cell-Based Dose Confirmation HTS to Identify Inhibitors of Platelet Dense Granule Release. [Related pubchem assays: 1663 (Primary HTS), 1678 (Summary of Project)]
Type: functional
Conditions: not given

Compound | EC50
COc1cc(/C=N/NC(=O)c2nonc2C)ccc1O | 4.42 µM (active)

Tested on: H4
Assay: Luminescence Cell-Based Dose Response HTS to Identify Activators of 5'UTR Stem-Loop Driven Prion Protein mRNA Translation in H4 Neuroglioblastoma Cells. [Related pubchem assays: 1829 (Project Summary), 1814 (Primary HTS)]
Type: functional
Conditions: Homo sapiens

Compound | EC50
O=C(NCCCN1CCCC1=O)C(=O)Nc1cccc(F)c1 | > 120 µM (not active)
O=C(Nc1nc(=O)c2ccccc2s1)c1ccc(F)cc1 | > 120 µM (not active)
CNc1nc(-c2ccc3c(c2)CCN3C(=O)c2cccc(F)c2)cs1 | 4.2 µM (active)
CCSc1ncc(/C=N/Nc2ccc([N+](=O)[O-])cc2)n1C | 0.793 µM (active)

Tested on: Streptococcus
Assay: Group A Streptococcus viability loss, dose response, counter-screen for streptokinase expression inhibitor project, luminescence, BacTiterGlo (AID 1915);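 note: potency for reduction of bacterial viability or growth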
Type: functional, organism-based
Conditions: not given

Compound | EC50
CCOC(=O)c1cc(-c2cccs2)nc2c1c(C)nn2-c1ccccn1 | 21.6 µM (active)

Molecular target: T3, Rac GTPase-activating protein 1 (Homo sapiens, UniProt Q9H0H5)
T3 sequence (Q9H0H5 whole entry): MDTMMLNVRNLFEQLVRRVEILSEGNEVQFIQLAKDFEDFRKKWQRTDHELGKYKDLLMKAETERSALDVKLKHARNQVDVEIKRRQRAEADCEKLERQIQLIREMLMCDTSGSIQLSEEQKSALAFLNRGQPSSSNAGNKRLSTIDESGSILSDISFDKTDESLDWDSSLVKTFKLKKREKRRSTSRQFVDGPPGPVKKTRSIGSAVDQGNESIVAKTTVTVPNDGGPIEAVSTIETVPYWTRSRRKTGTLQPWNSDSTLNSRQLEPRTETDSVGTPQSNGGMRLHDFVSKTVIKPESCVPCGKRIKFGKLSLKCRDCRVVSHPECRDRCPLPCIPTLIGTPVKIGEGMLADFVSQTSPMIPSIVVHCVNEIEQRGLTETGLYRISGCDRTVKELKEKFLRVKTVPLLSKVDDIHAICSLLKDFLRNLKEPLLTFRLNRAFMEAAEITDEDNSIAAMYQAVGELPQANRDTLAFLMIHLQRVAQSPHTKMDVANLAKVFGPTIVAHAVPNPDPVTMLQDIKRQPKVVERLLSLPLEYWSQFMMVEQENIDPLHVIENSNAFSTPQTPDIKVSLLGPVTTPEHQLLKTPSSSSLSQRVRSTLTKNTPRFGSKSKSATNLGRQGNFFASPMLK
Assay: MgcRacGAP GTPase-activating activity inhibitors, confirmation, biochemical, ADP Hunter fluorescence, primary and confirmatory (AID 624330)
Type: functional
Conditions: not given

Compound | IC50
COc1ccccc1CNCC(=O)N1CC(=O)Nc2ccccc21 | 143 µM (active)
COc1cc(/C=C/C(=O)OCc2cn3cc(Cl)ccc3n2)ccc1O | 45.5 µM (active)
COc1cc(/C=C/C(=O)OCC(=O)Nc2ccc3c(c2)OCCO3)ccc1O | 39.8 µM (active)
CC(=O)Nc1ccc(OC(=O)Cc2ccc(Cl)cc2)cc1 | 23.4 µM (active)
CCOc1cc(/C=C(\C#N)C(=O)NCC2CCCO2)ccc1O (stereo unspecified) | 41.5 µM (active)
CCn1c(=O)c(C(=O)CN(C)Cc2cccc(OC)c2OC)c(N)n(Cc2ccccc2)c1=O | 83.9 µM (active)
COc1ccc(NC(S)=NCC2CCN(c3ccc(OC)cc3)C2)cc1 (stereo unspecified) | 39.4 µM (active)
Cc1cccc(-n2c(=O)c3ccccc3n3c(S)nnc23)c1C | 40.7 µM (active)
COc1cc(/C=N/NC(=O)c2nonc2C)ccc1O | 28.8 µM (active)

Molecular target: Cytochrome P450 2C9 (Homo sapiens, UniProt P11712)
Sequence (P11712 whole entry): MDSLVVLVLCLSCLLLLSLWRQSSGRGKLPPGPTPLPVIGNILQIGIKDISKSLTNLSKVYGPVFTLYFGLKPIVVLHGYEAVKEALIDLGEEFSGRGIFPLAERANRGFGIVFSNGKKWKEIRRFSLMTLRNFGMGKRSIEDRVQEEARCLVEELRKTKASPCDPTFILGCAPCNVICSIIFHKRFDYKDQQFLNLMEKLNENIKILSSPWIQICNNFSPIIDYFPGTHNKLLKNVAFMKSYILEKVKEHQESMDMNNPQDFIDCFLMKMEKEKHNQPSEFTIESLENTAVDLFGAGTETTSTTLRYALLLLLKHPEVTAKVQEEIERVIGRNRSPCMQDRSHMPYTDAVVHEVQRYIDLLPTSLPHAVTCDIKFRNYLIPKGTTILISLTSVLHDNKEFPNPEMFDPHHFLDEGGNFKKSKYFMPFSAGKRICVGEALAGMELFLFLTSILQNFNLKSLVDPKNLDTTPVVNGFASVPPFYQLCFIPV
Assay: not given
Conditions: not given

Compound | AC50
Cc1cccc(NC(=O)CC2Nc3cccc4cccc(c34)NC2=O)c1 (stereo unspecified) | 12.6 µM (inconclusive)

Tested on: not listed separately
Assay: Luminescence Cell-Based Dose Response HTS to Identify Activators of Luciferase Translation or Activity in H4 […] Cells. [Related pubchem assays: 1829 (Project Summary), 1814 (Primary HTS)]
Type: functional
Conditions: not given

Compound | EC50
O=C(NCCCN1CCCC1=O)C(=O)Nc1cccc(F)c1 | 0.233 µM (active)
O=C(Nc1nc(=O)c2ccccc2s1)c1ccc(F)cc1 | 0.107 µM (active)
CNc1nc(-c2ccc3c(c2)CCN3C(=O)c2cccc(F)c2)cs1 | 1.41 µM (active)

Tested on: not listed separately
Assay: cytotoxicity toward NIH3T3 fibroblasts, dose response, counter-screen, cell-based, ATP luminescence, mouse fibroblasts (AID 2010);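 note: cells exposed to compound for about 90 hours before reading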
Type: functional
Conditions: not given

Compound | EC50
COc1ccc(OC)c(Nc2nc(N(C)c3ccccc3)nc(N)c2[N+](=O)[O-])c1 | > 30 µM (not active)

Tested on: Streptococcus sp. 'group A'
Assay: growth inhibition of control SK(-) GAS strain, dose response, counter-screen for streptokinase expression inhibitor project, luminescence, kanamycin, BacTiterGlo, confirmation (AID 1900)
Type: functional, organism-based
Conditions: not given

Compound | EC50
CCOC(=O)c1cc(-c2cccs2)nc2c1c(C)nn2-c1ccccn1 | 13.1 µM (active)

Molecular target: Large T antigen (Simian virus 40, UniProt P03070);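 note: Confirmatory-stage PubChem screen for compounds that inhibit SV40 T antigen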
Sequence (P03070 whole entry): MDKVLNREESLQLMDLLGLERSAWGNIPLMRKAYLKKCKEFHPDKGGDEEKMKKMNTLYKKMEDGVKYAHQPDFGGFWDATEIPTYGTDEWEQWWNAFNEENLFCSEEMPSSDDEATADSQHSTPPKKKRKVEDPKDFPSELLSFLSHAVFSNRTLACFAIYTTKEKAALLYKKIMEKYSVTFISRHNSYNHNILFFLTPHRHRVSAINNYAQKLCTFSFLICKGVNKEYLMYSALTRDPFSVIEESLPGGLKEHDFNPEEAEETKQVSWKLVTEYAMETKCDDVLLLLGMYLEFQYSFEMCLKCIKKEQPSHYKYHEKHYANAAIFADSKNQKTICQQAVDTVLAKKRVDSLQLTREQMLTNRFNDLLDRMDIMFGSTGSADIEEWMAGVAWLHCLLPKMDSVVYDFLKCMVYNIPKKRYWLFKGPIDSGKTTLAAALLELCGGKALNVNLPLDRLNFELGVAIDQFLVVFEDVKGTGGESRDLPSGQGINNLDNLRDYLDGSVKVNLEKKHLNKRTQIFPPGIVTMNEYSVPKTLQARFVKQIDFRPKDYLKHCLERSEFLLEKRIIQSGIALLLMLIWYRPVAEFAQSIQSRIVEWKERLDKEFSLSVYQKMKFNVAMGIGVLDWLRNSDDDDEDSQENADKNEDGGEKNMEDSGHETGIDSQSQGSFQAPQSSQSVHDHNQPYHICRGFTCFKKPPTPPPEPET
Assay: not given
Type: functional, Betapolyomavirus macacae
Conditions: not given

Compound | IC50
COc1cc(C2OCC3C(c4ccc(OC5OC(CO)C(O)C(O)C5O)c(OC)c4)OCC23)ccc1O (stereo unspecified) | 21.3 µM (active)
COc1ccc(N2CSC3=C(C#N)C(c4cc(OC)ccc4OC)CC(=O)N3C2)c(OC)c1 (stereo unspecified) | 63.1 µM (active)
Cc1cc(C=C2C(=O)N(C)C(=S)N(C)C2=O)c(C)n1-c1ccncc1 | 50.2 µM (active)
CN(C)c1ccc(CNc2ccc3c(c2)ncn3C)cc1 | 22.1 µM (active)
CC(=O)O[C@H]1C[C@@]2(C)[C@@H](C[C@@H](O)[C@H]3[C@@]4(C)CC[C@@H](O)[C@@H](C)[C@@H]4CC[C@@]32C)/C1=C(/CCC=C(C)C)C(=O)O | 31.6 µM (active)
COc1cc(/C=N/NC(=O)c2ccc3[nH]cnc3c2)ccc1O | 7.38 µM (active)
COc1cc(/C(C)=N/NC(=O)CSc2nnc(C)s2)ccc1O | 24.2 µM (active)

— ChEMBL document CHEMBL1201862, “PubChem BioAssay data set” (2004)
